# Source: patent US11535632B2, “Solid forms of an S1P-receptor modulator” (ESCAPE Bio, Inc., priority 2019, dated 2022)
# Read-outs that look alike come from different tables or passages of the source.
# How the values were obtained:
# Format in all cases: physicochemical
# [1] = Room temperature equilibrium solubility in aqueous suspensions; conditions: listed as Compound 1, Form A; for Total drug in solution: room temperature equilibrium, HPLC of supernatant
# [2] = Hygroscopicity evaluation by DVS at 25° C.
# Protocol: Hygroscopicity of Compound 1, Form A and Compound 1, Form B was evaluated by DVS at 25° C.
# [3] = Solid state stability study
# Excerpt: The two lots of Compound 1 were characterized by HPLC, PLM, XRPD, DSC, TGA, and KF. […] According to the stability study at different conditions, the two forms of compound were practically stable at different humidity for at least 4 weeks, with no XRPD pattern change and no growth of impurities were found.
# [4] = Competitive slurries of Form B and C in process relevant solvents; conditions: 90° C. in DMSO
# Protocol: Determination of the relative stabilities of Form B and Form C was undertaken to identify which material was more thermodynamically stable in process relevant solvents. As a suspected solvate was isolated from experiments where DMAC was used as a solvent, only DMSO and acetic acid were determined to be appropriate process solvents. Combinations of these solvents with relevant antisolvents were therefore selected for the competitive slurry experiments.
# Compound 1 (from Example 2) was dispensed into HPLC vials. To these, 1 ml of selected solvents was subsequently added to give a suspension. Materials were slurried for 72 hours at 90° C., 50° C. or 25° C. with 500 rpm stirring. Material was subsequently isolated by centrifugation and analyzed by XRPD.
smiles,measurement,setting,value
"O=C(O)[C@H]1C[C@@H](N2CCc3oc(-c4ccc(OCc5ccc(Cl)cc5)cc4)nc3C2)C1 [Form A, (1s,3s)-3-(2-(4-((4-chlorobenzyl)oxy)phenyl)-6,7-dihydrooxazolo[4,5-c]pyridin-5(4H)-yl)cyclobutane-1-carboxylic acid]",Total drug in solution,[1]; 0.2% HPMC aqueous suspension,1.3 µg/mL
same,pH,[1]; 0.2% HPMC aqueous suspension,7.2
same,Total drug in solution,[1]; 0.25% SLS aqueous suspension,23.7 µg/mL
same,pH,[1]; 0.25% SLS aqueous suspension,6.9
same,Total drug in solution,[1]; 20% HP-BCD aqueous suspension,446.5 µg/mL
same,pH,[1]; 20% HP-BCD aqueous suspension,5.7
same,XRPD after DVS test,[2],No form change but crystallinity
same,DVS Desorp. (%),"[2]; 0% RH, 1st Desorp.",0.00%
same,DVS Sorp. (%),"[2]; 0% RH, 1st Sorp.",0.00%
same,DVS Desorp. (%),"[2]; 0% RH, 2nd Desorp.",0.00%
same,DVS Sorp. (%),"[2]; 0% RH, 2nd Sorp.",0.00%
same,DVS Desorp. (%),"[2]; 10% RH, 1st Desorp.",0.01%
same,DVS Sorp. (%),"[2]; 10% RH, 1st Sorp.",0.00%
same,DVS Desorp. (%),"[2]; 10% RH, 2nd Desorp.",0.01%
same,DVS Sorp. (%),"[2]; 10% RH, 2nd Sorp.",0.00%
same,DVS Desorp. (%),"[2]; 20% RH, 1st Desorp.",0.01%
same,DVS Sorp. (%),"[2]; 20% RH, 1st Sorp.",−0.01%
same,DVS Desorp. (%),"[2]; 20% RH, 2nd Desorp.",0.01%
same,DVS Sorp. (%),"[2]; 20% RH, 2nd Sorp.",0.00%
same,DVS Desorp. (%),"[2]; 30% RH, 1st Desorp.",0.02%
same,DVS Sorp. (%),"[2]; 30% RH, 1st Sorp.",0.00%
same,DVS Desorp. (%),"[2]; 30% RH, 2nd Desorp.",0.02%
same,DVS Sorp. (%),"[2]; 30% RH, 2nd Sorp.",0.01%
same,DVS Desorp. (%),"[2]; 40% RH, 1st Desorp.",0.02%
same,DVS Sorp. (%),"[2]; 40% RH, 1st Sorp.",0.00%
same,DVS Desorp. (%),"[2]; 40% RH, 2nd Desorp.",0.02%
same,DVS Sorp. (%),"[2]; 40% RH, 2nd Sorp.",0.01%
same,DVS Sorp. (%),"[2]; 50% RH, 1st Sorp.",0.01%
same,DVS Desorp. (%),"[2]; 50% RH, 2nd Desorp.",0.03%
same,DVS Sorp. (%),"[2]; 60% RH, 1st Sorp.",0.01%
same,DVS Desorp. (%),"[2]; 60% RH, 2nd Desorp.",0.03%
same,DVS Sorp. (%),"[2]; 70% RH, 1st Sorp.",0.02%
same,DVS Desorp. (%),"[2]; 70% RH, 2nd Desorp.",0.04%
same,DVS Sorp. (%),"[2]; 80% RH, 1st Sorp.",0.02%
same,DVS Desorp. (%),"[2]; 80% RH, 2nd Desorp.",0.04%
same,DVS Sorp. (%),"[2]; 90% RH, 1st Sorp.",0.03%
same,DVS Desorp. (%),"[2]; 90% RH, 2nd Desorp.",0.04%
same,DVS Sorp. (%),"[2]; 95% RH, 1st Sorp.",0.01%
same,DVS Desorp. (%),"[2]; 95% RH, 2nd Desorp.",0.01%
same,Hygroscopicity based on DVS results,"[2]; listed as Compound 1, Form A",non-hygroscopic
same,XRPD after DVS test,"[2]; listed as Compound 1, Form A",no form change but crystallinity decreased and peaks became broad
same,Crystallinity (XRPD & PLM),"[3]; 4 weeks, 25° C./60% RH",Crystalline
same,Purity,"[3]; 4 weeks, 25° C./60% RH",99.48%
same,Weight loss (TGA) (~120° C.),"[3]; 4 weeks, 25° C./60% RH",0.981%
same,Crystallinity (XRPD & PLM),"[3]; 4 weeks, 40° C./75% RH",Crystalline
same,Purity,"[3]; 4 weeks, 40° C./75% RH",99.46%
same,Weight loss (TGA) (~120° C.),"[3]; 4 weeks, 40° C./75% RH",0.884%
same,Crystallinity (XRPD & PLM),"[3]; 6 weeks, 25° C./60% RH",Crystalline
same,Purity,"[3]; 6 weeks, 25° C./60% RH",99.54%
same,Water content,"[3]; 6 weeks, 25° C./60% RH",0.784%
same,Weight loss (TGA) (~120° C.),"[3]; 6 weeks, 25° C./60% RH",0.831%
same,Crystallinity (XRPD & PLM),"[3]; 6 weeks, 40° C./75% RH",Crystalline
same,Purity,"[3]; 6 weeks, 40° C./75% RH",99.47%
same,Water content,"[3]; 6 weeks, 40° C./75% RH",0.547%
same,Weight loss (TGA) (~120° C.),"[3]; 6 weeks, 40° C./75% RH",0.739%
same,Crystallinity (XRPD & PLM),"[3]; 8 weeks, 25° C./60% RH",Crystalline
same,Purity,"[3]; 8 weeks, 25° C./60% RH",99.51%
same,Water content,"[3]; 8 weeks, 25° C./60% RH",0.559%
same,Weight loss (TGA) (~120° C.),"[3]; 8 weeks, 25° C./60% RH",0.946%
same,Crystallinity (XRPD & PLM),"[3]; 8 weeks, 40° C./75% RH",Crystalline
same,Purity,"[3]; 8 weeks, 40° C./75% RH",99.53%
same,Water content,"[3]; 8 weeks, 40° C./75% RH",0.608%
same,Weight loss (TGA) (~120° C.),"[3]; 8 weeks, 40° C./75% RH",0.801%
same,Crystallinity (XRPD & PLM),[3]; Initial,Crystalline
same,Purity,[3]; Initial,99.46%
same,Water content,[3]; Initial,0.513%
same,Weight loss (TGA) (~120° C.),[3]; Initial,0.722%
same,Relative thermodynamic stability,[4],most thermodynamically stable polymorph
